Measurements reported in PMC5218480 (PLoS ONE, 2017).

Tested on: MV-4-11 cells
Test: Gene expression microarray analysis (Affymetrix PrimeView) and GSEA
Format: cell-based, human
Design: RFU PODN (11730768_x_at) / Fold change /veh PODN (11730768_x_at) / RFU LINC00158 (11744669_a_at) / Fold change /veh LINC00158 (11744669_a_at) / RFU DUSP10 (11751237_a_at) / Fold change /veh DUSP10 (11751237_a_at) / RFU ID3 (11757404_x_at) / Fold change /veh ID3 (11757404_x_at) / RFU PLEKHG5 (11737974_s_at) / Fold change /veh PLEKHG5 (11737974_s_at) / RFU LRRC4B (11730491_at) / Fold change /veh LRRC4B (11730491_at) / RFU GIMAP4 (11747438_a_at) / Fold change /veh GIMAP4 (11747438_a_at) / RFU KRT8 (11758183_x_at) / Fold change /veh KRT8 (11758183_x_at) / RFU CNN1 (11734310_a_at) / Fold change /veh CNN1 (11734310_a_at) / RFU VPS37D (11726825_at) / Fold change /veh VPS37D (11726825_at) / RFU C10orf10 (11716522_x_at) / Fold change /veh C10orf10 (11716522_x_at) / RFU KIR2DL2 /// KIR2DL4 /// KIR2DL5A /// KIR2DL5B /// KIR2DS1 /// KIR2DS2 /// KIR2DS3 /// KIR2DS4 /// KIR3DL3 /// KIR3DL3 /// KIR3DS1 (11738374_at) / Fold change /veh KIR2DL2 /// KIR2DL4 /// KIR2DL5A /// KIR2DL5B /// KIR2DS1 /// KIR2DS2 /// KIR2DS3 /// KIR2DS4 /// KIR3DL3 /// KIR3DL3 /// KIR3DS1 (11738374_at) / RFU C1QL1 (11718748_at) / Fold change /veh C1QL1 (11718748_at) / RFU TMPRSS4 (11747572_a_at) / Fold change /veh TMPRSS4 (11747572_a_at) / RFU HAMP (11756126_x_at) / Fold change /veh HAMP (11756126_x_at) / RFU RNFT2 (11725882_a_at) / Fold change /veh RNFT2 (11725882_a_at) / RFU NR4A2 (11747474_a_at) / Fold change /veh NR4A2 (11747474_a_at) / RFU ABCC12 (11746883_a_at) / Fold change /veh ABCC12 (11746883_a_at) / RFU TMEM136 (11760407_x_at) / Fold change /veh TMEM136 (11760407_x_at) / RFU CLDN22 /// WWC2 (11732394_at) / Fold change /veh CLDN22 /// WWC2 (11732394_at) / RFU HLA-DPB1 (11760878_x_at) / Fold change /veh HLA-DPB1 (11760878_x_at) / RFU SPINT1 (11716480_a_at) / Fold change /veh SPINT1 (11716480_a_at) / RFU GAP43 (11754022_s_at) / Fold change /veh GAP43 (11754022_s_at) / RFU A4GNT (11735810_at) / Fold change /veh A4GNT (11735810_at) / RFU PRB3 (11715151_x_at) / Fold change /veh PRB3 (11715151_x_at) / RFU TUBB4B (11761932_at) / Fold change /veh TUBB4B (11761932_at) / RFU CAPN14 (11732068_a_at) / Fold change /veh CAPN14 (11732068_a_at) / RFU TMCC2 (11721928_a_at) / Fold change /veh TMCC2 (11721928_a_at) / RFU IRGQ (11745062_a_at) / Fold change /veh IRGQ (11745062_a_at) / RFU FAM174B (11720279_a_at) / Fold change /veh FAM174B (11720279_a_at) / RFU TMPRSS4 (11748680_a_at) / Fold change /veh TMPRSS4 (11748680_a_at) / RFU FAM212B (11763350_a_at) / Fold change /veh FAM212B (11763350_a_at) / RFU PLEKHG5 (11743358_a_at) / Fold change /veh PLEKHG5 (11743358_a_at) / RFU ZSCAN30 (11745921_a_at) / Fold change /veh ZSCAN30 (11745921_a_at) / RFU CMKLR1 (11741424_a_at) / Fold change /veh CMKLR1 (11741424_a_at) / RFU LOC101060620 /// MAPK8IP1 (11723275_at) / Fold change /veh LOC101060620 /// MAPK8IP1 (11723275_at) / RFU SPTSSB (11747773_x_at) / Fold change /veh SPTSSB (11747773_x_at) / RFU PRSS12 (11739890_at) / Fold change /veh PRSS12 (11739890_at) / RFU BIN1 (11741810_x_at) / Fold change /veh BIN1 (11741810_x_at) / RFU WNT11 (11732464_a_at) / Fold change /veh WNT11 (11732464_a_at) / RFU C10orf10 (11716521_a_at) / Fold change /veh C10orf10 (11716521_a_at) / RFU C5orf56 (11738089_at) / Fold change /veh C5orf56 (11738089_at) / RFU CYB561 (11721691_x_at) / Fold change /veh CYB561 (11721691_x_at) / RFU ANKRD19P (11752326_a_at) / Fold change /veh ANKRD19P (11752326_a_at) / RFU OR2T12 /// OR2T33 /// OR2T8 (11738714_s_at) / Fold change /veh OR2T12 /// OR2T33 /// OR2T8 (11738714_s_at) / RFU VCAN (11748164_a_at) / Fold change /veh VCAN (11748164_a_at) / RFU JSRP1 (11732532_at) / Fold change /veh JSRP1 (11732532_at) / RFU KRTAP10-11 (11738290_x_at) / Fold change /veh KRTAP10-11 (11738290_x_at) / RFU MYO3A (11730013_a_at) / Fold change /veh MYO3A (11730013_a_at) / RFU EBF3 (11725865_a_at) / Fold change /veh EBF3 (11725865_a_at) / RFU CAMK2N1 (11719241_x_at) / Fold change /veh CAMK2N1 (11719241_x_at) / RFU C5orf56 (11738088_a_at) / Fold change /veh C5orf56 (11738088_a_at) / RFU OLFML3 (11715873_a_at) / Fold change /veh OLFML3 (11715873_a_at) / RFU LOC100653217 /// NTM (11731650_a_at) / Fold change /veh LOC100653217 /// NTM (11731650_a_at) / RFU MAPK11 (11762145_a_at) / Fold change /veh MAPK11 (11762145_a_at) / RFU FIZ1 (11724087_x_at) / Fold change /veh FIZ1 (11724087_x_at) / RFU OASL (11726364_x_at) / Fold change /veh OASL (11726364_x_at) / RFU SOX15 (11748057_x_at) / Fold change /veh SOX15 (11748057_x_at) / RFU CD79A (11719716_a_at) / Fold change /veh CD79A (11719716_a_at) / RFU HIST1H1D (11736915_at) / Fold change /veh HIST1H1D (11736915_at) / RFU CASKIN2 (11723855_a_at) / Fold change /veh CASKIN2 (11723855_a_at) / RFU LOC730098 (11760151_x_at) / Fold change /veh LOC730098 (11760151_x_at) / RFU OR4N2 (11742367_at) / Fold change /veh OR4N2 (11742367_at) / RFU PRRT2 (11749266_a_at) / Fold change /veh PRRT2 (11749266_a_at) / RFU SNX32 (11753110_a_at) / Fold change /veh SNX32 (11753110_a_at) / RFU CDHR5 (11726645_a_at) / Fold change /veh CDHR5 (11726645_a_at) / RFU RCAN1 (11760418_a_at) / Fold change /veh RCAN1 (11760418_a_at) / RFU FAM167A (11723789_a_at) / Fold change /veh FAM167A (11723789_a_at) / RFU FAM26E (11764081_at) / Fold change /veh FAM26E (11764081_at) / RFU ISYNA1 (11749810_s_at) / Fold change /veh ISYNA1 (11749810_s_at) / RFU ACY1 (11761880_at) / Fold change /veh ACY1 (11761880_at) / RFU 11764098_at / Fold change /veh 11764098_at / RFU SAMD14 (11745864_x_at) / Fold change /veh SAMD14 (11745864_x_at) / RFU NPB (11741838_a_at) / Fold change /veh NPB (11741838_a_at) / RFU TMPRSS6 (11731388_a_at) / Fold change /veh TMPRSS6 (11731388_a_at) / RFU KRTAP10-2 (11738614_at) / Fold change /veh KRTAP10-2 (11738614_at) / RFU ARHGAP8 /// PRR5-ARHGAP8 (11727945_x_at) / Fold change /veh ARHGAP8 /// PRR5-ARHGAP8 (11727945_x_at) / RFU KRTAP5-7 /// NADSYN1 (11734609_at) / Fold change /veh KRTAP5-7 /// NADSYN1 (11734609_at) / RFU RASL12 (11751679_a_at) / Fold change /veh RASL12 (11751679_a_at) / RFU CDKN2B (11736163_a_at) / Fold change /veh CDKN2B (11736163_a_at) / RFU PRF1 (11729649_at) / Fold change /veh PRF1 (11729649_at) / RFU, ZNF638 /// ZNF638-IT1 / Fold change vs veh, ZNF638 /// ZNF638-IT1 / RFU, PANK3 / Fold change vs veh, PANK3 / RFU, SH3YL1 / Fold change vs veh, SH3YL1 / RFU, ZEB2 / Fold change vs veh, ZEB2 / RFU, NRIP1 / Fold change vs veh, NRIP1 / RFU, PTTG1IP / Fold change vs veh, PTTG1IP / RFU, CAPN2 / Fold change vs veh, CAPN2 / RFU, MED14 / Fold change vs veh, MED14 / RFU, SNORA58 / Fold change vs veh, SNORA58 / RFU, C1orf63 / Fold change vs veh, C1orf63 / RFU, LRRFIP1 / Fold change vs veh, LRRFIP1 / RFU, NDUFAF7 / Fold change vs veh, NDUFAF7 / RFU, SLC12A2 / Fold change vs veh, SLC12A2 / RFU, IBTK / Fold change vs veh, IBTK / RFU, ESF1 / Fold change vs veh, ESF1 / Fold change vs veh, TMEM50B / RFU, TAOK1 / Fold change vs veh, TAOK1 / RFU, ACBD3 / Fold change vs veh, ACBD3 / RFU, TMA16 / Fold change vs veh, TMA16 / RFU, RWDD3 / Fold change vs veh, RWDD3 / RFU, BCAT1 / Fold change vs veh, BCAT1 / RFU, EDEM3 / Fold change vs veh, EDEM3 / RFU, TMEM33 / Fold change vs veh, TMEM33 / RFU, WDR75 / Fold change vs veh, WDR75 / RFU, AHCTF1 / Fold change vs veh, AHCTF1 / RFU, TFRC / Fold change vs veh, TFRC / RFU, ZDHHC17 / Fold change vs veh, ZDHHC17 / RFU, NOM1 / Fold change vs veh, NOM1 / RFU, ARL8B / Fold change vs veh, ARL8B / RFU, ZBTB11 / Fold change vs veh, ZBTB11 / RFU, TAMM41 / Fold change vs veh, TAMM41 / RFU, KIAA1704 /// LOC100996395 / Fold change vs veh, KIAA1704 /// LOC100996395 / RFU, ING1 / Fold change vs veh, ING1 / RFU, TRMT61B / Fold change vs veh, TRMT61B / RFU, FUBP3 / Fold change vs veh, FUBP3 / RFU, TP53 / Fold change vs veh, TP53 / RFU, TNKS2 / Fold change vs veh, TNKS2 / RFU, ZFP14 / Fold change vs veh, ZFP14 / RFU, ACTR2 / Fold change vs veh, ACTR2 / RFU, PPP3R1 / Fold change vs veh, PPP3R1 / RFU, PIK3R1 / Fold change vs veh, PIK3R1 / RFU, HNRNPA1 / Fold change vs veh, HNRNPA1 / RFU, RNF170 / Fold change vs veh, RNF170 / RFU, ZNF28 / Fold change vs veh, ZNF28 / RFU, RNGTT / Fold change vs veh, RNGTT / RFU, OGT / Fold change vs veh, OGT / RFU, BRD1 / Fold change vs veh, BRD1 / RFU, MARS / Fold change vs veh, MARS / RFU, ZNF655 / Fold change vs veh, ZNF655 / RFU, FAHD1 / Fold change vs veh, FAHD1 / RFU, BDP1 / Fold change vs veh, BDP1 / RFU, LRRCC1 / Fold change vs veh, LRRCC1 / RFU, ARID1A / Fold change vs veh, ARID1A / RFU, ZNF146 / Fold change vs veh, ZNF146 / RFU, ZNF330 / Fold change vs veh, ZNF330 / RFU, GPN3 / Fold change vs veh, GPN3 / RFU, C9orf123 / Fold change vs veh, C9orf123 / RFU, N4BP2L2 / Fold change vs veh, N4BP2L2 / RFU, ARFIP1 / Fold change vs veh, ARFIP1 / RFU, FAM179B / Fold change vs veh, FAM179B / RFU, BCL10 / Fold change vs veh, BCL10 / RFU, UHRF1BP1L / Fold change vs veh, UHRF1BP1L / RFU, BET1 / Fold change vs veh, BET1 / RFU, CNOT2 / Fold change vs veh, CNOT2 / RFU, ZNF268 / Fold change vs veh, ZNF268 / Fold change vs veh, ZNF507 / RFU, DGCR2 / Fold change vs veh, DGCR2 / RFU, WDSUB1 / Fold change vs veh, WDSUB1 / Fold change vs veh, HSP90B1 /// MIR3652 / RFU, ADSS / Fold change vs veh, ADSS / RFU, GK / Fold change vs veh, GK / RFU, ZNF148 / Fold change vs veh, ZNF148 / RFU, TAF9 / Fold change vs veh, TAF9 / RFU, SLC1A5 / Fold change vs veh, SLC1A5 / RFU, SLMO2 / Fold change vs veh, SLMO2 / RFU, ABCC4 / Fold change vs veh, ABCC4 / RFU, LOC101060439 /// RAP1B / Fold change vs veh, LOC101060439 /// RAP1B / RFU, RFX7 / Fold change vs veh, RFX7 / RFU, GTPBP10 / Fold change vs veh, GTPBP10 / RFU, CNEP1R1 / Fold change vs veh, CNEP1R1 / RFU, BIVM-ERCC5 /// ERCC5 / Fold change vs veh, BIVM-ERCC5 /// ERCC5 / RFU, ILF3 / Fold change vs veh, ILF3 / RFU 11762660_at / Fold change /veh 11762660_at / RFU VCAN (11757783_s_at) / Fold change /veh VCAN (11757783_s_at) / RFU DDX43 (11728927_at) / Fold change /veh DDX43 (11728927_at) / RFU KRT8 (11758188_x_at) / Fold change /veh KRT8 (11758188_x_at) / RFU NKD1 (11759106_at) / Fold change /veh NKD1 (11759106_at) / RFU SRD5A1 (11742802_a_at) / Fold change /veh SRD5A1 (11742802_a_at) / RFU TPSAB1 /// TPSB2 (11721975_s_at) / Fold change /veh TPSAB1 /// TPSB2 (11721975_s_at) / RFU GSTM3 (11746129_a_at) / Fold change /veh GSTM3 (11746129_a_at) / RFU IL23R (11737362_x_at) / Fold change /veh IL23R (11737362_x_at) / RFU TMEM51 (11727254_a_at) / Fold change /veh TMEM51 (11727254_a_at) / RFU PIWIL2 (11732686_x_at) / Fold change /veh PIWIL2 (11732686_x_at) / RFU ORM1 (11744905_x_at) / Fold change /veh ORM1 (11744905_x_at) / RFU CCDC152 (11743942_at) / Fold change /veh CCDC152 (11743942_at) / RFU ECM1 (11717891_a_at) / Fold change /veh ECM1 (11717891_a_at) / RFU IL23R (11748794_a_at) / Fold change /veh IL23R (11748794_a_at) / RFU TNFAIP8L3 (11732012_x_at) / Fold change /veh TNFAIP8L3 (11732012_x_at) / RFU MBOAT4 (11741988_at) / Fold change /veh MBOAT4 (11741988_at) / RFU 11764193_at / Fold change /veh 11764193_at / RFU TMEM53 (11763286_at) / Fold change /veh TMEM53 (11763286_at) / RFU MAGEB2 (11727129_at) / Fold change /veh MAGEB2 (11727129_at) / RFU TMEM200A (11744735_a_at) / Fold change /veh TMEM200A (11744735_a_at) / RFU CCDC152 (11751479_a_at) / Fold change /veh CCDC152 (11751479_a_at) / RFU FAM211A (11726209_a_at) / Fold change /veh FAM211A (11726209_a_at) / RFU RGS16 (11746705_a_at) / Fold change /veh RGS16 (11746705_a_at) / RFU VCAN (11755009_s_at) / Fold change /veh VCAN (11755009_s_at) / RFU RHOB (11743442_s_at) / Fold change /veh RHOB (11743442_s_at) / RFU RGS16 (11720943_a_at) / Fold change /veh RGS16 (11720943_a_at) / RFU RGS16 (11720944_at) / Fold change /veh RGS16 (11720944_at) / RFU, VPS4B / Fold change vs veh, VPS4B / RFU, CREB1 / Fold change vs veh, CREB1 / RFU, DNAJC13 / Fold change vs veh, DNAJC13 / RFU, GNAQ / Fold change vs veh, GNAQ / RFU, CDK5R1 / Fold change vs veh, CDK5R1 / RFU, ZRANB3 / Fold change vs veh, ZRANB3 / RFU, CUL4A / Fold change vs veh, CUL4A / RFU, CCNY / Fold change vs veh, CCNY / RFU, UFL1 / Fold change vs veh, UFL1 / RFU, COG3 / Fold change vs veh, COG3 / RFU, DIAPH2 / Fold change vs veh, DIAPH2 / RFU, SKA2 / Fold change vs veh, SKA2 / RFU, AFF3 / Fold change vs veh, AFF3 / RFU, LMF1 / Fold change vs veh, LMF1 / RFU, IPO11 / Fold change vs veh, IPO11 / RFU, DFFB / Fold change vs veh, DFFB / RFU, FOXP1 / Fold change vs veh, FOXP1 / RFU, CARD8 / Fold change vs veh, CARD8 / RFU, STRN3 / Fold change vs veh, STRN3 / RFU, ADK / Fold change vs veh, ADK / RFU, RASSF2 / Fold change vs veh, RASSF2 / RFU, WIPF1 / Fold change vs veh, WIPF1 / RFU, LARP1B / Fold change vs veh, LARP1B / RFU, RASA1 / Fold change vs veh, RASA1 / RFU, RB1 / Fold change vs veh, RB1 / RFU, PPFIA1 / Fold change vs veh, PPFIA1 / RFU, MAT2A / Fold change vs veh, MAT2A / RFU, CCT5 / Fold change vs veh, CCT5 / RFU, WDR92 / Fold change vs veh, WDR92 / RFU, CUX1 / Fold change vs veh, CUX1 / RFU, TTC7A / Fold change vs veh, TTC7A / RFU, TMEM135 / Fold change vs veh, TMEM135 / RFU, DEPTOR / Fold change vs veh, DEPTOR / RFU, CPM / Fold change vs veh, CPM / RFU, DNAJB6 / Fold change vs veh, DNAJB6 / RFU, CACNA2D3 / Fold change vs veh, CACNA2D3 / RFU, DTX4 / Fold change vs veh, DTX4 / RFU, TFCP2 / Fold change vs veh, TFCP2 / RFU, GMCL1 /// GMCL1P1 / Fold change vs veh, GMCL1 /// GMCL1P1 / RFU, AEBP2 / Fold change vs veh, AEBP2 / RFU, SNHG1 /// SNORD22 /// SNORD25 /// SNORD26 /// SNORD27 /// SNORD28 /// SNORD29 /// SNORD31 / Fold change vs veh, SNHG1 /// SNORD22 /// SNORD25 /// SNORD26 /// SNORD27 /// SNORD28 /// SNORD29 /// SNORD31 / Fold change (Aza/veh), C12orf56 (ProbeSet 11735607_a_at) / Fold change (ACY-1035/veh), C12orf56 (ProbeSet 11735607_a_at) / Fold change (Aza/veh), FGFR1OP (ProbeSet 11751329_s_at) / Fold change (ACY-1035/veh), FGFR1OP (ProbeSet 11751329_s_at) / Fold change (Aza/veh), VPS36 (ProbeSet 11739960_a_at) / Fold change (ACY-1035/veh), VPS36 (ProbeSet 11739960_a_at) / RFU SYPL1 (11715823_x_at) / Fold change /veh SYPL1 (11715823_x_at) / RFU IGFBP7 (11715501_s_at) / Fold change /veh IGFBP7 (11715501_s_at) / RFU REEP3 (11722064_at) / Fold change /veh REEP3 (11722064_at) / RFU IGLL1 (11728026_x_at) / Fold change /veh IGLL1 (11728026_x_at): dose or concentration left out as unconfirmed
Conditions: ProbeSet 11755159_a_at; LIST D

## Nc1ncn([C@@H]2O[C@H](CO)[C@@H](O)[C@H]2O)c(=O)n1 [azacitidine]
  RFU, COG3: 74.05 RFU
